Results as given in patent US5202266A, “25-hydroxy vitamin D3 derivatives, process for their production, and assay method using the same” (Asahi Kasei Kogyo Kabushiki Kaisha, priority 1987, dated 1993).

Key:
[1] = system: Anti-25-hydroxy vitamin D3 rabbit serum; assay: Radio immunoassay standard curve of 25-hydroxy vitamin D3 using the labeled derivative as tracer; type: binding; details: RIA; for sensitivity of assay, monoiodine vs diiodine [125I] labeling: FIG. 3; for standard curve result by methylene chain length n in R1: FIG. 4, n=1, n=2, n=3 compared
Method: A standard ethanol solution of 25-hydroxy vitamin D3 (256 pg/20 μl) was diluted stepwise by two-fold dilution to prepare 128 pg/20 μl, 64 pg/μl, 32 pg/20 μl, 16 pg/20 μl, 8 pg/20 μl, 4 pg/20 μl and 2 pg/20 μl samples.
Samples (20 μl) of each concentration hereinabove were pipetted into three tubes. Ethanol solutions, each 20 μl, of radioisotope iodine [^125 I]-labeled 25-hydroxy vitamin D3 derivative which contains as an antioxidant tocopherol was pipetted into each tube (20 μl, ca. 13,000 cpm).
Anti-25-hydroxy vitamin D3 rabbit serum diluted with tris buffer (approx. 15,000 dilution) pH 8.6, each 1 ml, was added to each tube. Each mixture in the tubes was stirred in a BORTEX mixer and allowed to stand at 5° C. overnight (20-24 hours). Glycine buffer (pH 8.6) suspending a mixture of dextran (T70) and active charcoal (1:10), each 300 μl) was added into the reaction tubes, and each was stirred by a BORTEX mixer and incubated at 5° C. for 1 hour. B-F separation was performed by centrifugation at 3,000 r.p.m. for 10 mins., and each supernatant solution (1 ml) was measured by an Autowell γ-counter for 1 min. The ratio of binding is calculated by the following equation: [formula] wherein (B) is the count number in each tube, (BL) is the count number measured by using 25-hydroxy vitamin D3 (1,000 pg/20 μl) in place of isotope ^125 I-labeled 25-hydroxy vitamin D3 derivative, and (Bo) is the count number measured by using 25-hydroxy vitamin D3 at zero concentration.
A standard curve was prepared by using tritium [^3 H]-labeled 25-hydroxy vitamin D3 derivative (26, 27-methyl-^3 H) as in the case of the [^125 I]-labeled derivative in (1) hereinabove.
Monoiodine [^125 I] labeling and diiodine [^125 I] labeling were compared according to the same method as hereinabove. In FIG. 3, -- -- -- indicates monoiodine [^125 I] labeling, and -- -- -- indicates diiodine [^125 I] labeling.
In formula [IV], assays using compounds having methylene R1 [--CH2)n--] wherein n=1, n=2 and n=3, are compared with each other.

[2] = Storage stability of [125I]-labeled derivative, checked by CPBA standard curve using DBP; type: physicochemical; details: 50% H2O-ethanol solution, -20° C., argon atmosphere, day 0, 21 and 49; FIG. 6
Method: A standard ethanol solution of 25-hydroxy vitamin D3 (1,024 pg/20 μl) was diluted stepwise by two-fold dilutions to prepare 32 pg/20 μl, 16 pg/20 μl, 8 pg/20 μl, 4 pg/20 μl, 2 pg/20 μl and 1 pg/20 μl.
Samples (20 μl) of each concentration hereinabove were pipetted into two tubes. Aliquots of an ethanol solution, each 20 μl, of radioisotope iodine [125I]-labeled 25-hydroxy vitamin D3 derivative, containing as an antioxidant tocopherol, were pipetted into each tube (20 μl, ca. 30,000 cpm) DBP diluted with tris buffer, pH 8.6 (approx. 500-1,000 dilution of DBP fraction in (1) hereinabove) each 500 μl, was stirred and allowed to stand at 4° C. for 16 hours.
Glycine buffer, pH 8.6, suspending a mixture of dextran (T70) and active charcoal (1:10) (each 30 μl), was added into the reaction tubes, stirred and incubated at 4° C. for 30 mins. B-F separation was made by centrifugation at 3,000 r.p.m. for 10 mins. at 4° C., and each supernatant solution 500 μl was measured by an Autowell γ-counterfor 1 min. The ratio of binding is calculated by the following equation: [formula] wherein (B) is the count number in each tube, (NSB)-- is the count number measured by using 25-hydroxy vitamin D3 (1,024 pg/20 μl) instead of ^12 5I-labeled 25-hydroxy vitamin D3 derivative and (Bo) is the count number measured by using 25-hydroxy vitamin D3 at zero concentration.
A 50% H2 O-ethanol solution of [^125 I] […]

Row | SMILES | sensitivity of assay, monoiodine vs diiodine [125I] labeling [1] | stability: change of standard curve after storage [2] | standard curve result by methylene chain length n in R1 [1]
1 | C=C1CC[C@H](OC(=O)CCNC(=O)CCc2cc([125I])c(O)c([125I])c2)C/C1=C/C=C1\CCC[C@]2(C)[C@@H]([C@H](C)CCCC(C)(C)O)CC[C@@H]12 [Example 5] | almost the same sensitivity | no changes of the standard curve within a range of 2-32 pg/Test were observed | 
2 | C=C1CC[C@H](OC(=O)CCCNC(=O)CCc2ccc(O)c([125I])c2)C/C1=C/C=C1\CCC[C@]2(C)[C@@H]([C@H](C)CCCC(C)(C)O)CC[C@@H]12 [n=3] |  |  | good results as compared with n=1
3 | C=C1CC[C@H](OC(=O)CCNC(=O)CCc2ccc(O)c([125I])c2)C/C1=C/C=C1\CCC[C@]2(C)[C@@H]([C@H](C)CCCC(C)(C)O)CC[C@@H]12 [n=2] |  |  | good results as compared with n=1
4 | C=C1CC[C@H](OC(=O)CCNC(=O)CCc2ccc(O)c([125I])c2)C/C1=C/C=C1\CCC[C@]2(C)[C@@H]([C@H](C)CCCC(C)(C)O)CC[C@@H]12 [Example 4, 25-hydroxy vitamin D3 --3β--O--{3-[N-3-(4-hydroxy-3-iodo [^125 I]phenyl)propionyl]amino propionate}] | almost the same sensitivity | no changes of the standard curve within a range of 2-32 pg/Test were observed | 
